Assay results reported in ChEMBL document CHEMBL4699583 (J Med Chem, 2020).

Tests used:
[1] = target: DNA topoisomerase 2-alpha (Homo sapiens, UniProt P11388); assay: Inhibition of recombinant human topoisomerase 2alpha using supercoiled pBR322 DNA as substrate incubated for 60 mins by ethidium bromide dye based agarose gel electrophoresis method
[2] = Kinetic solubility of compound in PBS at pH 7.4 incubated for 24 hrs under shaking condition by UPLC-MS analysis; type: physicochemical; details: for Kinetic_solubility: buffer, pH 7.4, 24 h
[3] = in vitro; details: mouse, liver microsomes

DNA topoisomerase 2-alpha, sequence (P11388 whole entry): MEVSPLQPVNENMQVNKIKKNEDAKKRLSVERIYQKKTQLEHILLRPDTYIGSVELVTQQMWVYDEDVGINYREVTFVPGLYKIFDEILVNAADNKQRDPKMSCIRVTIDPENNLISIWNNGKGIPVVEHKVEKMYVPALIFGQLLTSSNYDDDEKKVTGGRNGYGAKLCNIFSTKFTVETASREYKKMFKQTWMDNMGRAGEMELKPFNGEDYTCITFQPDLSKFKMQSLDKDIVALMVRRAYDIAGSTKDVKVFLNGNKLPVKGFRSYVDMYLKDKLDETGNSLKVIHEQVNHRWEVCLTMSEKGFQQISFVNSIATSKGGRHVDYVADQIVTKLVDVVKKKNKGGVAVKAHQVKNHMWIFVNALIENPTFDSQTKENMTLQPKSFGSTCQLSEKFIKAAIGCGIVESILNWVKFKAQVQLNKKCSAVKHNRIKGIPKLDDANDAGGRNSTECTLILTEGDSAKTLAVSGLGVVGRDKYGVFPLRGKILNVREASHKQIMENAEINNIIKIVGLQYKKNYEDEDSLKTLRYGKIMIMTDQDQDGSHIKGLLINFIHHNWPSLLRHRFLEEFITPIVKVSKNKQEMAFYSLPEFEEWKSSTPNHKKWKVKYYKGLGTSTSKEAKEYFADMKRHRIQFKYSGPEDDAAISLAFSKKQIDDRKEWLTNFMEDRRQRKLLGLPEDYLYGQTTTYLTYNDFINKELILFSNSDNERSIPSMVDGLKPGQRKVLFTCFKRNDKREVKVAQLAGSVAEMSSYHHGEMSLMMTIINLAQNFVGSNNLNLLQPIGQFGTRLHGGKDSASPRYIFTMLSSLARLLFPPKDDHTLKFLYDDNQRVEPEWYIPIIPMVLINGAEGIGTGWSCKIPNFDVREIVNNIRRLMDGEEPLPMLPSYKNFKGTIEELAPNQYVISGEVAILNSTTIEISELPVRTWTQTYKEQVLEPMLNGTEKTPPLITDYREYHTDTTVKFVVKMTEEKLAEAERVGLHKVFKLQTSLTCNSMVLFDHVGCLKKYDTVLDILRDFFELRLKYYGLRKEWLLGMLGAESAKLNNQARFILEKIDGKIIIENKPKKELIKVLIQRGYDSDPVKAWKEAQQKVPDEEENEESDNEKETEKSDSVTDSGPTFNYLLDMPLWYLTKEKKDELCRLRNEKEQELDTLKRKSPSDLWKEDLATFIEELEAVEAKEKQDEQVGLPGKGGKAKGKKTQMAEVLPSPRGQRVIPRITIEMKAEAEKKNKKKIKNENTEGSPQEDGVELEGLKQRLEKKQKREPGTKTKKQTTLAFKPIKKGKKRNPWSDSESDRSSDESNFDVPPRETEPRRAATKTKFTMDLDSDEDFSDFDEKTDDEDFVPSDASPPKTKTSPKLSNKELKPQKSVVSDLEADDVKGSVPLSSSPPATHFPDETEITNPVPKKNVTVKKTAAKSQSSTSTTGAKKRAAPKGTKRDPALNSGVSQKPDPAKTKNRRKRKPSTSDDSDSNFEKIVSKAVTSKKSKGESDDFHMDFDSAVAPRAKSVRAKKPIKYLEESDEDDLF

IC50 [1]	SMILES	also measured
Not Active	CN(C)c1cccc(Nc2nc(-c3ccncc3)nc3c2CC(N)CC3)c1 (centres undefined)	
	NC1CCc2nc(-c3ccncc3)nc(Nc3cccc(F)c3)c2C1 (racemic)	Kinetic_solubility [2]: 126 µM
Not Active	Fc1cccc(Nc2nc(-c3ccncc3)nc3c2CCCC3)c1	
	NC1CCc2nc(-c3cccnc3)nc(Nc3cccc(F)c3)c2C1 (centres undefined)	solubility kinetic at 24 h ([2]; PBS, pH 7.4, read-out: Kinetic_solubility): > 250 µM; half-life at 1 h, 4.6 µM [3]: > 1 h
	COc1cccc(Nc2nc(-c3ccncc3)nc3c2CC(N)CC3)c1 (centres undefined)	Kinetic_solubility [2]: > 250 µM; half-life at 1 h, 4.6 µM [3]: > 1 h
	NC1CCc2nc(-c3ccncc3)nc(Nc3ccc(F)cc3)c2C1 (centres undefined)	Kinetic_solubility [2]: > 250 µM; half-life at 1 h, 4.6 µM [3]: > 1 h
Not Active	NC1CCc2nc(-c3ccncc3)nc(Nc3ccccc3F)c2C1 (centres undefined)	
Not Active	CN(c1cccc(F)c1)c1nc(-c2ccncc2)nc2c1CC(N)CC2 (centres undefined)	
Not Active	NC1CCc2nc(-c3ccncc3)nc(Nc3ccccc3)c2C1 (centres undefined)	
Not Active	COc1ccc(Nc2nc(-c3ccncc3)nc3c2CC(N)CC3)cc1 (centres undefined)	
Not Active	NC1CCc2nc(-c3ccccn3)nc(Nc3cccc(F)c3)c2C1 (centres undefined)	
